pIC50: −log10 of the molar value.
Experiments:
[1] = tested on: P-388/ADR (adriamycin-Resis-tant); conditions: mice; cited from earlier work
FRESH HUMAN TUMORS = assay: Colony forming assay in fresh human tumors, all tumor types; type: cell-based; conditions: Total of all tumor types; .001 ug/mL continuously; tumor cell survival of less than 50% of control
Protocol: The clonogenic assays were conducted in accordance with the procedure described hereinbelow: 1) Colony Forming Assays in Soft Agar: Fresh human or murine tumors are disaggregated into single cell suspensions using mechanical, hypoosmotic and/or enzymatic (trypsin) methods. The single cells (about 5 X 10^4-10^5) are plated in 35 mm plastic petri dishes onto a 1 ml "feeder layer" of 0.3% agar dissolved in growth medium containing 5-10% vol/vol of heat-inactivated fetal bovine serum, molten 0.3% agar and the antibiotics penicillin (100 u/mL) and streptomycin (100 ug/mL). Drug exposures can be performed for one hour or continuously (drugs added to final plating medium). Tumor cell colonies > 60 uM in size are counted by automated image analysis after 10-20 days of incubation in a humidified, 5-10% CO2-gassed environment maintained at 37°C. Inhibition of colony formation is calculated based on comparisons to control (untreated) plates wherein the growth of hundreds of colonies/plate is typical. […]
Fresh human tumor specimens disaggregated to single cell suspensions and exposed to .001 ug/mL of drug continuously. Percent survival represents the fraction of tumor colonies (> 60 uM size) obtained after drug treatment compared to untreated cells of the same tumor. […] Each tumor sample is analyzed in three different petri dishes (i.e., n = 3 for each sample).

Colon-38 Adenocarcinoma = conditions: mice; cited from earlier work
[2] = tested on: P-388 lymphocytic leukemia; conditions: mice; cited from earlier work
M5-76 Sarcoma = conditions: cited from earlier work
[3] = tested on: 16-C Mammary Adenocarcinoma; conditions: cited from earlier work
205p14 = assay: Activity against human colon tumor cells (MTT assay, 3 day drug exposure); type: cell-based; conditions: cells plated 24 hr. prior to drug addition, read-out: Concentration for 50% inhibition of colony formation for human colon tumors
Protocol: (§1) For example, the compounds of the present invention were evaluated for cytotoxic activities in cloned human colon carcinomas. The clonogenic assays were conducted in accordance with the procedure described hereinbelow: 1) Colony Forming Assays in Soft Agar: Fresh human or murine tumors are disaggregated into single cell suspensions using mechanical, hypoosmotic and/or enzymatic (trypsin) methods. The single cells (about 5 X 10^4-10^5) are plated in 35 mm plastic petri dishes onto a 1 ml "feeder layer" of 0.3% agar dissolved in growth medium containing 5-10% vol/vol of heat-inactivated fetal bovine serum, molten 0.3% agar and the antibiotics penicillin (100 u/mL) and streptomycin (100 ug/mL). Drug exposures can be performed for one hour or continuously (drugs added to final plating medium). Tumor cell colonies > 60 uM in size are counted by automated image analysis after 10-20 days of incubation in a humidified, 5-10% CO2-gassed environment maintained at 37°C. Inhibition of colony formation is calculated based on comparisons to control (untreated) plates wherein the growth of hundreds of colonies/plate is typical. (Salmon SE, et al., N Engl J Med 298(24):1321-1327, 1978).
(§2) Compounds of the present invention were tested for their in vitro activity in tumor cells sensitive and resistant to standard anti-cancer agents. The tumor cell lines used in this protocol are 8226 human Myeloma^1; 8226/Dox-40^2, L-1210/Murine Leukemia, multidrug resistant L-210/^3, 2780 Human Ovarian Cancer and 2780/AD^4. Each of these resistant cell lines is known as a multidrug resistant or "MDR" cell line. These cell lines produce a 170,00 molecular weight membrane protein termed the P-glycoprotein which acts as an active drug efflux pump. Thus, once a cell produces the P-glycoprotein, it has the capability of pumping out of the cell a large variety of unrelated natural products. […] The protocol for measuring the effectiveness of compounds of the present invention is as follows: 2) In Vitro Tumor Cell Viability Assays Using MTT-Dye: Tumors are processed into a single cell suspension as described above. The cells are plated at a concentration of 3-5 X 10^4/1 mL well into plastic 96-well plates. Growth medium containing 5-10% (vol/vol) heat-inactivated fetal bovine serum and penicillin/streptomycin (as above) is added prior to incubation at 37°C for six days. Afterwards the medium containing the drug is removed, the cells are "washed" by centrifugation in fresh medium or phosphate-buffered saline (pH 7.4). A tetrazolium dye is then added (3,4,5-dimethylthiazol-2-yl)-2,5-diphenyl tetrazolium bromide (MTT). This dye forms a colored formazan product upon activation by mitochondrial reductases in viable cells. Typically, the formazan product is solubilized in acid-propanol or DMSO. The intensity of the color is proportional to viable cell numbers and this is quantitated by spectrophotometric absorbance ([…]) on a micro ELISA plate reader. Test results are calibrated in % control absorbance from untreated tumor cells (Mossman T: J Immunol Meth 65:55-63, 1983). Using the above procedure, Compound 1 was tested for its cytotoxic activity with respect to various tumor cell lines.

LOVOp32 = assay: as above; type: cell-based; conditions: cells plated 24 hr. prior to drug addition, read-out: Concentration for 50% inhibition of colony formation for human colon tumors
Protocol: as §1, §2

HT29p30 = assay: as above; type: cell-based; conditions: cells plated 24 hr. prior to drug addition, read-out: Concentration for 50% inhibition of colony formation for human colon tumors
Protocol: as §1
as §2, with “Growth medium containing 5-10% (vol/vol) heat-inactivated fetal bovine serum and penicillin/streptomycin (as above) is added prior to incubation at 37°C for six days.” left out

SW80p105 = assay: as above; type: cell-based; conditions: cells plated 24 hr. prior to drug addition, read-out: Concentration for 50% inhibition of colony formation for human colon tumors
Protocol: as §1
as §2, with “Growth medium containing 5-10% (vol/vol) heat-inactivated fetal bovine serum and penicillin/streptomycin (as above) is added prior to incubation at 37°C for six days.” left out

Row | SMILES | Comparative Activity From The Literature, ILS (Percentage Increased Lifespan) [1] [ILS] | Overall Response (FRESH HUMAN TUMORS) [%] | Comparative Activity From The Literature, Days of Tumor Growth Delay (Colon-38 Adenocarcinoma) [days] | Comparative Activity From The Literature, ILS (Percentage Increased Lifespan) [2] [ILS] | Comparative Activity From The Literature, Days of Tumor Growth Delay (M5-76 Sarcoma) [days] | Comparative Activity From The Literature, Days of Tumor Growth Delay [3] [days] | pIC50 (205p14) | pIC50 (LOVOp32) | pIC50 (HT29p30) | pIC50 (SW80p105)
1 | COc1cccc2c1C(=O)c1c(O)c3c(c(O)c1C2=O)C[C@@](O)(C(=O)CO)C[C@@H]3O[C@H]1C[C@H](N)[C@H](O)[C@H](C)O1 [Doxorubicin] | 18 | 20 | 10 | 164 | – | – | – | – | – | –
2 | CN(C)CCN1C(=O)c2cccc3cc(N)cc(c23)C1=O [Amonafide, amino-N-dimethylaminoethylbenz[de]isoquinoline] | 35 | – | <7 | 99 | 7 | 7 | 6.80 | 6.22 | 6.02 | 6.24

From patent publication EP0536208B1, “1,2-DIHYDRO-3H-DIBENZISOQUINOLINE-1,3-DIONE ANTICANCER AGENTS” (RESEARCH CORPORATION TECHNOLOGIES, INC., priority 1990, dated 1992)
